Several values for one entry are separate records, joined by “and”; a condition that tells them apart may be missing. Equal values may be shown once.
Key:
herpes = experiment: In vivo herpes screening test; design: species or system mice; details: mouse, in vivo
Method: The positive control was acyclovir at 75 mg/kg dose; 60% of the mice survived with a mean death date of 17.2 days.

[1] = tested on: Human Tumor Colony Forming Units; experiment: In Vitro Human Tumor Colony Forming Units Test; details: for tumors that had ≧50% survival / tumors tested, total line: all tumor types
A549 lung tumor cells = experiment: MTT cell viability test, lung tumor cells; type: cell-based, human; details: MTT, 5 day incubation
influenza = experiment: In vitro influenza model; type: cell-based
Prostate cancer model = experiment: Prostate cancer model, tumor weight; type: in vivo, mice; details: c1-c6 = day 22, 26, 29, 33, 36, 39
[2] = tested on: VM4K (MCF7 transfected with abnormal p53); experiment: Selectivity in killing p53 abnormal cell lines, cell counts; type: cell-based; details: day 7
Method: (§1) Summary of lest results: Pairs of tumors of the same type were chosen, one expressing normal p53 and the other abnormal p53. Breast lines used were MCF7 for the normal p53, V4B, a MCF7 cells transformed with an empty vector, and VM4K, an MCF7 cells transfected with a vector encoding abnormal p53. In the colorectal cancer model HCT116 with a normal p53 was used and DLD-1 was used as the abnormal p53 cell line. The tumor cells were grown the presence and absence of carbendazim for 7 days. Cell growth rates were determined in each group by counting the cell numbers daily using a Coulter counter.

[3] = tested on: V4B (MCF7 transformed with empty vector); experiment: as above; type: cell-based; details: day 7
Method: as §1

MCF7 (normal p53) = experiment: as above; type: cell-based; details: day 7
Method: as §1

DLD-1 (abnormal p53) = experiment: as above; type: cell-based; details: day 7
Method: as §1

HCT116 (normal p53) = experiment: as above; type: cell-based; details: day 7
Method: as §1

[4] = tested on: HIV-1 in U1 cells (promonocytic, from U937); experiment: Additional chronic HIV studies, monocytes; type: cell-based; details: concentration not given
Method: Chronic HIV-1 infected cells U1 were derived from an acute HIV-1 infection of the promonocytic cell line, U937. The chronic HIV-1 infected cells, ACH-2 were derived from an acute HIV-1 infection of the T cell line, A3.01.
These cells were cultured in medium and the phorbol ester, PMA. PMA causes the cells (both U1 and ACH-2) to be activated and not divide but it also causes the U-1 cells to differentiate. […] Cell viability was measured when these cell lines were treated with the test compound.
Both cell lines constituitively produce a small amount of HIV-1. ACH-2 cell lines tend to produce more HIV-1 than U1 cells as shown by p24 ELISA. When either cell line is cultured in the presence of PMA there is an increase in the quantity of HIV-1 produced as measured by the p24 antigen ELISA.
In addition, the number of […] positive HIV mRNA expressing cells per microscopic field is measured. Comparisons can be made from these numbers since the same number of cells were adhered to the glass slides for each drug concentration 10×10^6 cells/ml).
These cells were treated with test samples. […] The positive control was interferon which suppressed HIV monocytes replication by 80%.

colon = experiment: Tumor growth reduction in mice models (Tables 5 and 6), colon; type: in vivo; details: HT29-colon, 2500 mg/kg
[5] = tested on: HT29 (colon) cancer cells; experiment: Apoptosis study (TdT assay) and cell growth; type: cell-based, human
Method: Summary of test results: The extent of apoptosis is measured in human tumor cell lines after treatment for 1, 2, 3 and 4 days with carbendazim. At each of these time points, the cells are harvested and assayed using the terminal deoxynucleotidyl transferase (TdT) assays. Both microscopy and flow cytometry were used for the TdT assay.
In MCF7, HT29, B16 and SK-MES cell lines, there was a concentration dependent effect on cell growth. […] After completion of the studies on the MCF7 and HT29 cell lines, it was evident that the 0.1 μg/ml concentration had little effect on either apoptosis or cell growth. Therefore subsequent assays were with 5 μg/ml instead of 0.1 μg/ml.

[6] = tested on: MX1 breast cancer tumors implanted subcutaneously; experiment: Tumor growth reduction in mice models (Table 5), breast; type: in vivo; details: MXI-breast
HT29 colon tumor cells = experiment: MTT cell viability test, colon tumor cells; type: cell-based, human; details: MTT, 5 day incubation

SMILES: COC(=O)Nc1nc2ccccc2[nH]1 [carbendazim, 2-methoxycarbonylamino-benzimidazole]
- activity (herpes): no activity
- positive results / tumors tested ([1]; 1 Hour Exposure, 0.5 μg/ml): 0/1
- positive results / tumors tested ([1]; 1 Hour Exposure, 5.0 μg/ml): 0/1
- positive results / tumors tested ([1]; 1 Hour Exposure, 50.0 μg/ml): 0/1
- tumors that had ≧50% survival / tumors tested ([1]; Brain, 2nd '1 Hour Exposure' group, c4-c7 = 0.5, 5.0, 10, 50 μg/ml): 0/2 and 2/2
- tumors that had ≧50% survival / tumors tested ([1]; Breast, 1 Hour Exposure, c1-c3 = 0.5, 5.0, 50 μg/ml): 0/1
- tumors that had ≧50% survival / tumors tested ([1]; Breast, 2nd '1 Hour Exposure' group, c4-c7 = 0.5, 5.0, 10, 50 μg/ml): 0/3 and 0/4 and 0/1 and 2/3
- tumors that had ≧50% survival / tumors tested ([1]; Cervix, 2nd '1 Hour Exposure' group, c4-c7 = 0.5, 5.0, 10, 50 μg/ml): 0/1 and 1/1
- tumors that had ≧50% survival / tumors tested ([1]; Colon, 1 Hour Exposure, c1-c3 = 0.5, 5.0, 50 μg/ml): 0/1
- tumors that had ≧50% survival / tumors tested ([1]; Colon, 2nd '1 Hour Exposure' group, c4-c7 = 0.5, 5.0, 10, 50 μg/ml): 0/5 and 1/5 and 2/5
- positive results / tumors tested ([1]; Continuous Exposure, 0.5 μg/ml): 0/14
- positive results / tumors tested ([1]; Continuous Exposure, 5.0 μg/ml): 3/14
- positive results / tumors tested ([1]; Continuous Exposure, 50.0 μg/ml): 5/14
- tumors that had ≧50% survival / tumors tested ([1]; Head & Neck, 1 Hour Exposure, c1-c3 = 0.5, 5.0, 50 μg/ml): 0/1
- tumors that had ≧50% survival / tumors tested ([1]; Head & Neck, 2nd '1 Hour Exposure' group, c4-c7 = 0.5, 5.0, 10, 50 μg/ml): 0/1 and 1/1
- tumors that had ≧50% survival / tumors tested ([1]; Kidney, 1 Hour Exposure, c1-c3 = 0.5, 5.0, 50 μg/ml): 0/1
- tumors that had ≧50% survival / tumors tested ([1]; Kidney, 2nd '1 Hour Exposure' group, c4-c7 = 0.5, 5.0, 10, 50 μg/ml): 0/2 and 1/2
- tumors that had ≧50% survival / tumors tested ([1]; Lung, non-small cell, 1 Hour Exposure, c1-c3 = 0.5, 5.0, 50 μg/ml): 0/1
- tumors that had ≧50% survival / tumors tested ([1]; Lung, non-small cell, 2nd '1 Hour Exposure' group, c4-c7 = 0.5, 5.0, 10, 50 μg/ml): 0/6 and 2/6 and 0/1 and 2/5
- tumors that had ≧50% survival / tumors tested ([1]; Melanoma, 1 Hour Exposure, c1-c3 = 0.5, 5.0, 50 μg/ml): 0/2 and 1/2
- tumors that had ≧50% survival / tumors tested ([1]; Melanoma, 2nd '1 Hour Exposure' group, c4-c7 = 0.5, 5.0, 10, 50 μg/ml): 0/3 and 1/3 and 2/3
- tumors that had ≧50% survival / tumors tested ([1]; Mesothelioma, 2nd '1 Hour Exposure' group, c4-c7 = 0.5, 5.0, 10, 50 μg/ml): 0/1
- tumors that had ≧50% survival / tumors tested ([1]; Ovary, 1 Hour Exposure, c1-c3 = 0.5, 5.0, 50 μg/ml): 0/3
- tumors that had ≧50% survival / tumors tested ([1]; Ovary, 2nd '1 Hour Exposure' group, c4-c7 = 0.5, 5.0, 10, 50 μg/ml): 0/1 and 2/13 and 10/13
- tumors that had ≧50% survival / tumors tested ([1]; Sarcoma, 1 Hour Exposure, c1-c3 = 0.5, 5.0, 50 μg/ml): 0/1 and 1/1
- tumors that had ≧50% survival / tumors tested ([1]; Sarcoma, 2nd '1 Hour Exposure' group, c4-c7 = 0.5, 5.0, 10, 50 μg/ml): 0/1 and 1/1
- tumors that had ≧50% survival / tumors tested ([1]; Stomach, 2nd '1 Hour Exposure' group, c4-c7 = 0.5, 5.0, 10, 50 μg/ml): 0/1 and 1/1
- tumors that had ≧50% survival / tumors tested ([1]; Unknown Primary, 2nd '1 Hour Exposure' group, c4-c7 = 0.5, 5.0, 10, 50 μg/ml): 0/1
- tumors that had ≧50% survival / tumors tested ([1]; Uterus, 2nd '1 Hour Exposure' group, c4-c7 = 0.5, 5.0, 10, 50 μg/ml): 0/3 and 2/3
- tumors that had ≧50% survival / tumors tested, total line ([1]; 1 Hour Exposure, c1-c3 = 0.5, 5.0, 50 μg/ml): 0/11 and 2/11
- tumors that had ≧50% survival / tumors tested, total line ([1]; 2nd '1 Hour Exposure' group, c4-c7 = 0.5, 5.0, 10, 50 μg/ml): 0/4 and 6/44 and 0/3 and 27/41
- EC-50 Result (A549 lung tumor cells; A549, first column): 0.856 ppm
- EC-50 Result (A549 lung tumor cells; A549, second column): 0.836 ppm
- activity (influenza): no activity
- tumor weight (Prostate cancer model; 4000 mg/kg p.o. twice a week): 330.5 mg and 347.9 mg and 346.6 mg and 421.1 mg and 464.9 mg and 517 mg
- tumor weight (Prostate cancer model; 6000 mg/kg p.o. twice a week): 331.5 mg and 371.7 mg and 421.7 mg and 517.2 mg and 529.9 mg and 595.2 mg
- cell counts, % of the control ([2]; 5 μg/ml): less than 10%
- cell counts, % of the control ([2]; 10 μg/ml): less than 10%
- cell counts, % of the control ([3]; 5 μg/ml): less than 10%
- cell counts, % of the control ([3]; 10 μg/ml): less than 10%
- cell counts, % of the control (MCF7 (normal p53); 5 μg/ml): 45%
- cell counts, % of the control (MCF7 (normal p53); 10 μg/ml): 36%
- cell counts, % of the control (DLD-1 (abnormal p53); DLD1, 1 μg/ml): 34%
- cell counts, % of the control (DLD-1 (abnormal p53); DLD-1, 5 μg/ml): less than 10%
- cell counts, % of the control (DLD-1 (abnormal p53); DLD-1, 10 μg/ml): less than 10%
- cell counts, % of the control (HCT116 (normal p53); HCT 116, 1 μg/ml): 78%
- cell counts, % of the control (HCT116 (normal p53); HCT116, 5 μg/ml): less than 10%
- cell counts, % of the control (HCT116 (normal p53); HCT116, 10 μg/ml): less than 10%
- suppression of replication in the HIV monocytes [4]: 9%
- Tumor Growth Decrease (%) (colon): 54%
- apoptosis ([5]; 10 μg/ml, days 3 and 4): > 25%
- cell growth ([5]; below 10 μg/ml): not largely slowed down
- Tumor Growth Decrease (%) ([6]; 500 mg/kg): 42%
- Tumor Growth Decrease (%) ([6]; 2500 mg/kg): 37%
- EC-50 Result (HT29 colon tumor cells; HT29, first column): 0.621 ppm
- EC-50 Result (HT29 colon tumor cells; HT29, second column): 0.662 ppm

— patent publication US6362207B1, “Methods of treating viral infections with benzimidazoles” (priority 1995, dated 2002)
